Experimental data reported in ChEMBL document CHEMBL1157539, “Thousands of chemical starting points for antimalarial lead identification” (Nature, 2010).

Test system: Plasmodium falciparum
Assay: GSK_TCMDC: Inhibition of Plasmodium falciparum 3D7 in whole erythrocytes, using parasite LDH activity as an index of growth.
Assay type: functional, organism-based
Settings: Plasmodium falciparum, 3D7

SMILES	XC50
ON=C1CCc2cc(-c3cc(-c4ccc(OC5CCNCC5)cc4)oc3-c3ccncc3)ccc21	157 nM
CCN(CC)CCNc1ccnc2[nH]c3ccc(C)cc3c12	669 nM
Nc1c(Cl)cc(C(O)CNCCCCCOCCCc2ccc3ncccc3c2)cc1Cl (configuration not stated)	978 nM
N#Cc1ccc(N/C(=N\c2cccc(Cl)c2Cl)NC2Cc3ccccc3C2)c(O)c1	832 nM
CCN(CC)C(=O)c1cccc(C=Cc2ccc(-c3c(C)[nH]c(C)c(Cl)c3=O)cc2)c1	259 nM
CC(C)c1ccc(NC(=O)c2ccc(C(=O)NCC3CCN(CC4CCCCC4)CC3)cc2)cc1	900 nM
COCCCNC(=O)[C@H]1CNCCN1C(=O)c1ccccc1	802 nM
CS(=O)(=O)c1ccccc1CNC(=O)c1ccc(-c2cccc(-c3nc4cc(C(F)(F)F)ccc4[nH]3)c2)cc1	866 nM
CN(C)CCNCc1cccc(-c2ccc3c(Nc4cc(O)c(Cl)cc4F)ccnc3c2)c1	549 nM
CC(C)n1nc(C(=O)N2CCN(c3ccccc3)CC2)c2ccccc2c1=O	979 nM
CNC(=O)COC(=O)c1c2c(nc3ccccc13)C(=Cc1ccc3c(c1)OCO3)CCC2	643 nM
CC1CCCCC1N(C)C1CCN(CCCNC(=O)C=Cc2cccc(C(F)(F)F)c2)CC1 (configuration not stated)	772 nM
CCOc1ccc(Nc2ccc3nonc3c2S(=O)(=O)Nc2ccc(OCC)cc2)cc1	505 nM
O=C(Nc1nc(-c2cc(F)ccc2F)cs1)c1cncc(Br)c1	1080 nM
Cc1nc(-c2cccc(Nc3ccnc4cc(-c5nccs5)ccc34)c2)no1	322 nM
CN(C)CCOc1cc(NC(=O)Nc2ccc(-c3ccncc3)c(C(F)(F)F)c2)ccc1Cl	991 nM
COc1ccc(C(F)(F)F)cc1N1CCN(CCCCNC(=O)c2ccc(NC(=O)c3ccc(Cl)cc3)cc2)CC1	909 nM
N=C(N)NC(=O)Nc1cc(Br)c(Br)c(Br)c1	809 nM
Cn1c(N)c(N=O)c(=O)[nH]c1=O	176 nM
COc1ccc(-c2nc3cc4ccccc4nc3[nH]2)c(OCC(O)CNC(C)C)c1 (configuration not stated)	694 nM
Cc1[nH]c(C)c(-c2ccc(Nc3ccc(C(F)(F)F)cn3)cc2)c(=O)c1Br	26 nM
OCC1CCN(Cc2cccc(-c3cccc(-c4nc5cc(C(F)(F)F)ccc5[nH]4)c3)c2)CC1	506 nM
Cc1ccc(C2CCN(CCCCNC(=O)c3ccc(-c4ccc(C#N)cc4)cc3)CC2)c(O)c1	292 nM
COc1ccc2ncc(F)c([C@H](O)CN3CCC(NCc4cc5c(cn4)OCCO5)CC3)c2c1	292 nM
CCCCCCc1cc(Oc2c(I)cc(C[C@H](N)C(=O)O)cc2I)ccc1O	906 nM

SMILES	XC50
CC[C@@H]([C@@H](CC(C)C)C(=O)N[C@@H](CCCCNC(=O)OCc1ccccc1)C(=O)Nc1ccccn1)N(O)C=O	108 nM
O=C(NCCCCN1CCC(c2ccc3ccccc3c2)CC1)c1ccc(NC(=O)c2ccc(Cl)cc2)cc1	226 nM
COc1ccc(-c2csc(C(=O)NC3CCC(N4CCC(c5ccccc5C)CC4)CC3)c2)cc1 (configuration not stated)	378 nM
CCCc1cn2c3c(cc(C(=O)N[C@@H](Cc4ccccc4)[C@H](O)CNC4CCOCC4)cc13)N(C)S(=O)(=O)CC2	47.7 nM
NC1CCN(c2cnn(Cc3cccc(NC(=O)Nc4ccc(-c5ccccc5)cc4)c3)c(=O)c2Cl)CC1	1140 nM
Cc1ccc(C(=O)Nc2ccnc(N(C)C3CCN(Cc4cccc(O)c4)CC3)c2)cn1	1880 nM
N=C(N)NN=Cc1c2ccccc2c(Cl)c2cc(Cl)ccc12	791 nM
Cc1[nH]c(C)c(-c2ccc(-c3ccc(C(F)(F)F)cc3C(F)(F)F)nc2)c(=O)c1Br	187 nM
CCN(c1cc(C)nc(Nc2ccc(Cl)cc2)n1)[C@H]1CCN(Cc2ccccc2)C1	855 nM
O=[N+]([O-])c1cccc(CNCC2CCN(Cc3ccc(Cl)c(Cl)c3)CC2)c1	913 nM
CCCCCCC(C)c1cc(O)c2c(c1)OC(C)(C)c1ccncc1-2 (configuration not stated)	797 nM
O=C(Nc1cccc2ccccc12)N1CCC(NS(=O)(=O)c2cccc(C(F)(F)F)c2)CC1	913 nM
O=C(Nc1ccc([N+](=O)[O-])cc1Cl)c1cc2ccccc2cc1O	1010 nM
CN(C)CCOc1cc(NC(=O)Nc2ccc(Cl)cc2C(F)(F)F)ccc1I	930 nM
Oc1cccc(Nc2nc(NCC3CCCO3)c3ccccc3n2)c1 (configuration not stated)	812 nM
CN(CCCCN)Cc1ccc(-c2ccc(Cl)cc2)cc1	882 nM
Cc1sc(CNCCCNc2cc(=O)c3ccccc3[nH]2)cc1Br	764 nM
CNCCNCc1ccc(-c2ccc(-c3nc4ccccc4[nH]3)s2)cc1	865 nM
O=C(Nc1ccc2oc(-c3ccc(Cl)cc3Cl)nc2c1)c1ccc([N+](=O)[O-])o1	1100 nM
Cn1cnc(CCNC(=O)c2ccc(-c3ccc(-c4nc5cc(C(F)(F)F)ccc5[nH]4)s3)cc2)c1	402 nM
O=C(Nc1ccc(OC2CCN(Cc3ccsc3)CC2)c(Cl)c1)c1ccc(F)cc1	647 nM
CC(C)(C)c1ccc(CNC(=O)/C=C/c2ccc(-c3nc4cc(C(C)(C)C)ccc4[nH]3)cc2)cc1	545 nM
Cc1cccc(C=NN=c2cc(C)[nH]c3ccc(F)cc23)n1	1000 nM
CC(CNC(=O)C(c1cc2ccccc2o1)N1CCN(C(c2ccccc2)c2ccccc2)CC1)c1ccccc1 (configuration not stated)	626 nM
CCN(CC)S(=O)(=O)c1ccc(CCOCCCCCNCC(O)c2cc(Cl)c(N)c(Cl)c2)s1 (configuration not stated)	858 nM

SMILES	XC50
CN(C)C(=O)CCCn1c(CNCCCNc2cc(=O)c3ccccc3[nH]2)cc2c(Cl)cc(Cl)cc21	1190 nM
CC(C)C1=C[C@H]2C[C@]3(C4OCCO4)[C@@H]4CC[C@@H](C)[C@H]4C[C@@]2(COCc2cccc(C#N)c2)[C@]13C(=O)OC(c1ccccc1)c1ccccc1	1790 nM
O=C(Cc1ccc(NC(=O)c2ccc(O)c(-c3ccc(Cl)c(Cl)c3)c2)cc1)NCCN1CCCCC1	841 nM
Oc1c(Cl)cc(-c2ccccc2)cc1CNC1CCCCC1	749 nM
CCOc1cc(C)ccc1NC1CCN(CCCCNC(=O)c2ccc(NC(=O)c3ccc(Cl)cc3)cc2)CC1	714 nM
COc1ccc(NC(=O)/C=C/c2ccc(-c3ccccc3)cc2)cc1N1CCN(C)CC1	906 nM
Cc1cccc(C)c1CNc1ccnc2cc(Br)ccc12	172 nM
N#Cc1ccc2c(c1)CCN(CCC1CCC(NC(=O)/C=C/c3cnc4ccccc4c3)CC1)CC2 (configuration not stated)	1210 nM
NC(=O)C1CCN(Cc2ccc(-c3ccc(-c4nc5cc(F)ccc5[nH]4)cc3)cc2)CC1	809 nM
COc1ccc(Cl)cc1N1CCN(CCCNC(=O)c2ccc(-c3nc4cc5ccccc5cc4[nH]3)c(F)c2)CC1	804 nM
Cc1cccc2nc(-c3ccc(-c4cccc(NC(=O)CCc5c[nH]cn5)c4)s3)[nH]c12	838 nM
Fc1ccc(C=NNc2nc3ccccc3[nH]2)cc1	783 nM
Oc1cccc(Nc2ccnc3cc(-c4cc5ccccc5o4)ccc23)c1	763 nM
CN1CCN(c2cc(-c3cccc(C(F)(F)F)c3)nc(-c3ccncc3)n2)CC1	731 nM
CCCCCCn1c(Sc2ccc(C#N)c([N+](=O)[O-])c2)nnc1-c1ccc(N(C)C)cc1	1070 nM
Cc1c(CNCCCNc2cc(=O)c3ccccc3[nH]2)sc(C(F)=C(F)F)c1Br	836 nM
CN(Cc1cc(C(F)(F)F)cc(C(F)(F)F)c1)C(=O)C1CNCC1c1ccc(F)cc1 (configuration not stated)	828 nM
CCCCCCCc1cc(O)c2c(c1)OC(C)(C)c1ccncc1-2	1150 nM
Oc1ccc(OCc2ccccn2)cc1	980 nM
CCNc1cc(C)nc(Nc2ccc(NS(=O)(=O)c3cc(OC)ccc3OC)cc2)n1	853 nM
CCCCCCNC(=O)C1Cc2c([nH]c3ccc(C)cc23)C2(CCN(Cc3ccccc3)CC2)N1 (configuration not stated)	982 nM
CCOc1ccccc1CNc1nccc(NCc2ccccc2OC)n1	1490 nM
O=C(Nc1ccc2c(c1)CCN(C1CCC1)CC2)c1ccc(-n2ccnc2)cn1	373 nM
CCCCCCCCNc1c2ccc(Cl)cc2nc2ccc(OC)cc12	805 nM
Cc1c(Cl)cccc1N=C(S)NN=Cc1ccccn1	603 nM

SMILES	XC50
CCn1ncc2c(N3CCCC3=O)cc(C(=O)N[C@@H](Cc3ccccc3)[C@H](O)CNC(C)(C)c3cccc(C(F)(F)F)c3)cc21	149 nM
O=C(Nc1ccc(OC2CCN(Cc3ccc(F)cc3)CC2)cc1)c1cccs1	969 nM
Cc1nc(C(=O)N2CCCC[C@H]2CNC(=O)c2ccc(-c3ccc(N4CCCC4=O)cc3C)cc2)c(-c2ccc(F)cc2)s1	459 nM
CCCC[C@@H](C(=O)NCCc1ccc(Cl)cc1)N1C(=O)CCC1C(=O)Nc1ccc(Cl)c(Cl)c1 (some centres not stated)	873 nM
COC(=O)c1ccc(-c2ccc(C(=O)NCC3CCN(c4nc(N)c5cc(OC)c(OC)cc5n4)CC3)cc2)cc1	185 nM
NC(=O)c1ccc(NCC(=O)Nc2cccc(-c3cccc(-c4nc5ccccc5[nH]4)c3)c2)cc1	987 nM
C[C@H](NC(=O)c1c(CN2CCC(NC(=O)CC(C)(C)C)CC2)c(-c2cccs2)nc2ccccc12)C1CCCCC1	947 nM
CN1CCN(c2ccc(Nc3c(C(N)=O)cnc4cc(-c5ccoc5)ccc34)cc2C(F)(F)F)CC1	785 nM
Cn1cncc1C(=O)Nc1cccc(-c2ccc(-c3nc4cc(C(F)(F)F)ccc4[nH]3)cc2)c1	509 nM
O=C(Cc1c[nH]cn1)Nc1ccc(-c2ccc(-c3nc4ccccc4[nH]3)s2)cc1	1060 nM
O=C(Nc1ccc(F)c(C(F)(F)F)c1)NC1CCN(CCCCCNC(=O)C2CC2c2ccc(Cl)c(Cl)c2)CC1 (configuration not stated)	663 nM
Ic1cc(Nc2ncnc3ccsc23)ccc1OCc1ccccc1	773 nM
O=C(N[C@H]1CCN(Cc2ccc(OC3CCN(Cc4ccccc4)CC3)c(Br)c2)C1)c1ccc(Cl)c(Cl)c1	783 nM
Cc1nnc2c(NC(=O)NC3CCCC3)cc3cc(-c4ccc(CN(C)C)cc4)ccc3n12	1470 nM
CN(Cc1ccccc1)C1CCN(c2cc(NC(=O)c3cccc(F)c3)ccn2)CC1	1510 nM
CN(C)Cc1ccc(-c2ccc3c(Nc4ccc(Cl)cc4F)ccnc3c2)o1	241 nM
COc1cccc(C2CCN(CCCCNC(=O)c3ccc(NC(=O)c4ccc(Cl)cc4)cc3)CC2)c1	965 nM
COCCNCc1ccc(-c2cccc(CN(C(=O)CCC3CCCC3)C3CCN(Cc4ccccc4)CC3)c2)cc1	938 nM
O=C(Nc1ccc2c(c1)CCCN2S(=O)(=O)c1cccs1)c1cc([N+](=O)[O-])ccc1Cl	845 nM
CN(C)CCOC(=O)C1(O)CCC2CC1C2(C)C (configuration not stated)	984 nM
CCCOc1ccc(C(F)(F)F)cc1NC(=O)c1nc2nc(C)cc(C)n2n1	251 nM
CO/C(=C\C=C\c1cc2cc(Cl)c(Cl)cc2[nH]1)C(=O)NCCCN1CCN(c2ccc(OC)cc2)CC1	700 nM
